Data: patent publication US20220096516A1, “OLIGONUCLEOTIDE MOLECULE AND APPLICATION THEREOF IN TUMOR THERAPY” (Ractigen Therapeutics, priority 2019, published 2022)
d = 2'-deoxy (DNA); r = 2'-OH (RNA)

How the values were obtained:
Type in all cases: cell-based, human
[1] = system: LHPP gene; experiment: LHPP mRNA expression by RT-qPCR in cancer cell lines; conditions: 72 h
Procedure: (§1) 8 LHPP promoter-targeting saRNAs were individually transfected into liver cancer cells at 10 nM for 72 h. In FIG. 6A, the expression level of LHPP mRNA was analyzed by RT-qPCR. In FIG. 6B, cell viability in the saRNA treatment group was evaluated by the CCK-8 method and recorded as a percentage relative to the viability of cells in a control (Mock) treatment group.
as §1, with “into” for “into liver”, “7A,” for “6A,”, “7B,” for “6B,”
(§2) In order to further evaluate the effect of LHPP saRNAs in inducing the mRNA expression of the LHPP gene and inhibiting the proliferation of cancer cells, eight screened saRNAs (RAG7-132, RAG7-133, RAG7-139, RAG7-177, RAG7-178, RAG7-694, RAG7-707 and RAG7-892) each were transfected into the liver cancer cell lines Huh7 (Medical Cell Resource Center, Tohoku University, Japan), HepG2 (ATCC), Hep3B (ATCC), Li-7 (Medical Cell Resource Center, Tohoku University, Japan) and SK-HEP-1 (ATCC), a lung cancer cell line A549 (ATCC), a bladder cancer cell line T24 (ATCC), a prostatic cancer cell line PC3 (ATCC), and a glioma cell line U87MG (ATCC). The mRNA expression and cell viability of the transfected cells were measured.

[2] = system: LHPP gene; experiment: High-throughput screening of saRNAs targeting LHPP promoter: LHPP mRNA by one-step RT-qPCR in Huh7 cells; conditions: 10 nM saRNA, 72 hours, relative to control (Mock)
Outline: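 Huh7 cells were transfected with 10 nM saRNA using RNAiMax and lysed 72 h later. LHPP mRNA was quantified by one-step RT-qPCR in triplicate wells. Expression was normalised to HPRT1 and TBP and given as fold change versus mock-transfected cells.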

[3] = system: lung cancer cell line A549; experiment: Cell viability by CCK-8 method, A549; conditions: A549, 10 nM, 72 h, FIG. 7B
Procedure: as §1, with “into” for “into liver”, “7A,” for “6A,”, “7B,” for “6B,”
(§3) The cell viability was detected by the following CCK-8 method: the cCells were plated into a 96-well plate at 3-5×10^3 cells/well, cultured overnight, and transfected with the oligonucleotide duplexes. After 72 hour of transfection, 10 uL of CCK-8 solution (Dojindo Molecular Technologies) was added into each well. After 1 hour of incubation at 37° C., a microplate reader was used to measure absorbances at 450 nm.
as §2

[4] = system: glioma cell line U87MG; experiment: Cell viability by CCK-8 method, U87MG; conditions: 10 nM, 72 h, FIG. 7B
Procedure: as §1, with “into” for “into liver”, “7A,” for “6A,”, “7B,” for “6B,”
as §3, §2

[5] = system: prostatic cancer cell line PC3; experiment: Cell viability by CCK-8 method, PC3; conditions: PC3, 10 nM, 72 h, FIG. 7B
Procedure: as §1, with “into” for “into liver”, “7A,” for “6A,”, “7B,” for “6B,”
as §3, §2

[6] = system: SK-HEP-1 cells; experiment: Cell viability by CCK-8 method, SK-HEP-1; conditions: SK-HEP-1, 10 nM, 72 h, FIG. 6B
Procedure: as §1
as §3, with “nm. […]” for “nm.”

[7] = system: bladder cancer cell line T24; experiment: Cell viability by CCK-8 method, T24; conditions: T24, 10 nM, 72 h, FIG. 7B
Procedure: as §1, with “into” for “into liver”, “7A,” for “6A,”, “7B,” for “6B,”
as §3, §2

[8] = system: Hep3B cells; experiment: Cell viability by CCK-8 method, Hep3B; conditions: 10 nM, 72 h, FIG. 6B
Procedure: as §1
as §3, with “nm. […]” for “nm.”

[9] = system: Huh7 cells; experiment: Cell viability by CCK-8 method, Huh7; conditions: Huh7, 10 nM, 72 h, FIG. 6B
Procedure: The 290 saRNAs targeting the LHPP promoter were individually transfected into Huh7 cells, and 72 hour later, one-step RT-qPCR was employed to analyze the expression levels of LHPP mRNA and cell viability was detected by the CCK-8 method.
as §3, §2

[10] = system: HepG2 cells; experiment: Cell viability by CCK-8 method, HepG2; conditions: HepG2, 10 nM, 72 h, FIG. 6B
Procedure: as §1
as §3, with “nm. […]” for “nm.”

| Substance | expression of LHPP gene (mRNA) ([1]; A549, 10 nM, FIG. 7A) | Fold of changes in relative LHPP mRNA expression level [2] [fold] | Fold of changes in relative LHPP mRNA expression level (log2) [2] [log2] | cell proliferation (cell viability, CCK-8) [3] | other results |
| --- | --- | --- | --- | --- | --- |
| RAG7-178: saRNA duplex; sense AAUUUGCCUUUGACCUUUCTT (SEQ ID NO: 5), antisense GAAAGGUCAAAGGCAAAUUTT (SEQ ID NO: 169) (sugars from the 5' end r19 d2, backbone not given here) | induced the expression of LHPP gene to different degrees | 1.76 | 0.82 | inhibited cell proliferation | expression of LHPP gene (mRNA) ([1]; PC3, 10 nM, FIG. 7A): induced the expression of LHPP gene to different degrees; expression of LHPP gene (mRNA) ([1]; U87MG, 10 nM, FIG. 7A): induced the expression of LHPP gene to different degrees; cell proliferation (cell viability, CCK-8) [4]: inhibited cell proliferation; cell proliferation (cell viability, CCK-8) [5]: inhibited cell proliferation |
| RAG7-694: saRNA duplex; sense AGGUCCUAUGCAUCCUCAUTT (SEQ ID NO: 3), antisense AUGAGGAUGCAUAGGACCUTT (SEQ ID NO: 167) (sugars from the 5' end r19 d2, backbone not given here) | induced the expression of LHPP gene to different degrees | 1.88 | 0.91 | inhibited cell proliferation | cell proliferation (cell viability, CCK-8) [6]: inhibited cell proliferation; expression of LHPP gene (mRNA) ([1]; Hep3B, 10 nM, FIG. 6A): induced the expression of LHPP gene to different degrees; expression of LHPP gene (mRNA) ([1]; HepG2, 10 nM, FIG. 6A): induced the expression of LHPP gene to different degrees; expression of LHPP gene (mRNA) ([1]; Huh7, 10 nM, FIG. 6A): induced the expression of LHPP gene to different degrees; expression of LHPP gene (mRNA) ([1]; PC3, 10 nM, FIG. 7A): induced the expression of LHPP gene to different degrees; expression of LHPP gene (mRNA) ([1]; SK-HEP-1, 10 nM, FIG. 6A): induced the expression of LHPP gene to different degrees; expression of LHPP gene (mRNA) ([1]; T24, 10 nM, FIG. 7A): induced the expression of LHPP gene to different degrees; cell proliferation (cell viability, CCK-8) [7]: inhibited cell proliferation; cell proliferation (cell viability, CCK-8) [8]: inhibited cell proliferation; cell proliferation (cell viability, CCK-8) [9]: inhibited cell proliferation; cell proliferation (cell viability, CCK-8) [10]: inhibited cell proliferation; cell proliferation (cell viability, CCK-8) [5]: inhibited cell proliferation |
| RAG7-177: saRNA duplex; sense AUUUGCCUUUGACCUUUCUTT (SEQ ID NO: 6), antisense AGAAAGGUCAAAGGCAAAUTT (SEQ ID NO: 170) (sugars from the 5' end r19 d2, backbone not given here) | induced the expression of LHPP gene to different degrees | 1.74 | 0.80 | inhibited cell proliferation | expression of LHPP gene (mRNA) ([1]; T24, 10 nM, FIG. 7A): induced the expression of LHPP gene to different degrees; expression of LHPP gene (mRNA) ([1]; U87MG, 10 nM, FIG. 7A): induced the expression of LHPP gene to different degrees; cell proliferation (cell viability, CCK-8) [7]: inhibited cell proliferation; cell proliferation (cell viability, CCK-8) [4]: inhibited cell proliferation |
| RAG7-681: saRNA duplex; sense CCUCAUCUAUGCAGGGCUGTT (SEQ ID NO: 149), antisense CAGCCCUGCAUAGAUGAGGTT (SEQ ID NO: 313) (sugars from the 5' end r19 d2, backbone not given here) | – | 1.13 | 0.17 | – | – |
| RAG7-120: saRNA duplex; sense UGAUCUCCUGGGAAGAAAGTT (SEQ ID NO: 141), antisense CUUUCUUCCCAGGAGAUCATT (SEQ ID NO: 305) (sugars from the 5' end r19 d2, backbone not given here) | – | 1.14 | 0.19 | – | – |
| RAG7-34: saRNA duplex; sense GUUUGCACCCGGUCUUCUUTT (SEQ ID NO: 26), antisense AAGAAGACCGGGUGCAAACTT (SEQ ID NO: 190) (sugars from the 5' end r19 d2, backbone not given here) | – | 1.51 | 0.59 | – | – |
| RAG7-148: saRNA duplex; sense UUUUCUGCUUUUCCUGCUCTT (SEQ ID NO: 67), antisense GAGCAGGAAAAGCAGAAAATT (SEQ ID NO: 231) (sugars from the 5' end r19 d2, backbone not given here) | – | 1.30 | 0.38 | – | – |
